Data taken from ChEMBL document CHEMBL1159147, “4-(2-PYRTOYL)-5-phenylthiazoles as novel non-bicyclic reversible inhibitors of the gastric H+/K+-atpase” (Bioorg Med Chem Lett, 1995).

Key:
[1] = biological target: T1, Potassium-transporting ATPase alpha chain 1 (Sus scrofa, UniProt P19156); assay: Ability to inhibit H+/K+ stimulated ATPase activity in lympholised gastric vesicles; format: tissue-based, Stomach
Rattus norvegicus = assay: Compound was tested in vivo for its ability to inhibit pentagastrin-stimulated gastric acid secretion in the anesthetized lumen perfused rat at 10 umol/kg iv; format: functional; details: Stomach
[2] = Acid dissociation constant was reported; format: ADME
[3] = biological target: T1, Potassium-transporting ATPase alpha chain 1; assay: Compound was evaluated for its ability to inhibit K+-stimulated ATPase activity
[4] = Ability to inhibit Na(+)/K(+)-stimulated ATPase activity in hog kidney; design: species or system Sus scrofa

T1 sequence (P19156 whole entry, the tested form may be a part): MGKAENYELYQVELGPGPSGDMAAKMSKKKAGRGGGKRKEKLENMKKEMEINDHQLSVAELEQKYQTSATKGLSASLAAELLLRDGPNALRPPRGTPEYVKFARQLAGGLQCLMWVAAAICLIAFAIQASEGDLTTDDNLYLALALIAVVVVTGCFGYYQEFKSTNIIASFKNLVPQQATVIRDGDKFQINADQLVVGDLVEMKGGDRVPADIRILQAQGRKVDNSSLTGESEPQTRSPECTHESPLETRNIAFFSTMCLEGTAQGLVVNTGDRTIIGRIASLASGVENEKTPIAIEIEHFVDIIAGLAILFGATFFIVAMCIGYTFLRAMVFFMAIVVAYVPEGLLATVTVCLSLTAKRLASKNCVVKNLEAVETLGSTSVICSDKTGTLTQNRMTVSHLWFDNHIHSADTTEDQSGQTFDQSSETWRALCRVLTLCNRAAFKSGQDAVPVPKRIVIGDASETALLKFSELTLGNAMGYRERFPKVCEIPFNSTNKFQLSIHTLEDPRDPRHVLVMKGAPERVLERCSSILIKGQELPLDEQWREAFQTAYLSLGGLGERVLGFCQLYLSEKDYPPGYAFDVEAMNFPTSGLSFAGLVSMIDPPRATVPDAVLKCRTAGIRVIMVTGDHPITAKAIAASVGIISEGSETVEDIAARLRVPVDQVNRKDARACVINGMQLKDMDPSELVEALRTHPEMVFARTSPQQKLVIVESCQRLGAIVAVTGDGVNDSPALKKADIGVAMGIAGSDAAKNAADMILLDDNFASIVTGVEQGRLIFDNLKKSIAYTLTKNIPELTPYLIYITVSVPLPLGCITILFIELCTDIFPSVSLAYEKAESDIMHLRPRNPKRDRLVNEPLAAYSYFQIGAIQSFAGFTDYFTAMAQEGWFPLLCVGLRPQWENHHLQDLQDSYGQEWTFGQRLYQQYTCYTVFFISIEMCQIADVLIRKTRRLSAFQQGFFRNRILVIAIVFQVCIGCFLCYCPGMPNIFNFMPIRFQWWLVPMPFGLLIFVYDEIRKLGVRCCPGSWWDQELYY

Row | SMILES | IC50 [1] | pKa [2] | Ki [3] | IC50 [4] | inhibition in vivo at 10 µmol/kg (Rattus norvegicus)
1 | CCCc1nc(-c2cccc(NC)n2)c(-c2ccccc2C)s1 | 12.5 µM |  |  |  | 42%
2 | CCCc1nc(-c2ccccn2)c(-c2ccccc2C)s1 | 8.2 µM | 4.2 |  |  | 26%
3 | Cc1ccccc1-c1sc(Cc2ccccc2)nc1-c1ccccn1 | 9.6 µM |  |  |  | 29%
4 | CCCc1nc(-c2ccccn2)c(-c2ccccc2)s1 | 42.3 µM |  |  |  | 21%
5 | Cc1ccccc1-c1nc(-c2ccccn2)c(-c2ccccc2C)s1 | 4.9 µM |  |  |  | 
6 | CCOC(=O)c1cnc2c(OC)cccc2c1Nc1ccccc1C |  | 6.7 |  |  | 

Now from value to compound, other results behind:

Row | IC50 [1] | pKa [2] | Ki [3] | IC50 [4] | SMILES | inhibition in vivo at 10 µmol/kg (Rattus norvegicus)
7 | 2.9 µM |  |  |  | CCCc1nc(-c2cccc(N)n2)c(-c2ccccc2C)s1 | 48%
8 | 2.2 µM | 8 | 0.838 µM | 44 µM | CCCc1nc(-c2cc(N)ccn2)c(-c2ccccc2C)s1 | 36%
9 | 0.98 µM |  |  |  | Cc1ccccc1N1CCc2cnc3c(C)cccc3c21 | 47%
